In patent publication US20240358672A1, “APPLICATION OF GENISTEIN AND ITS PHOSPHATE ESTER DERIVATIVE AND PHARMACEUTICAL COMPOSITION COMPRISING THE SAME” (National Taiwan University, priority 2023, published 2024):

Tests used:
C57BL/6J mice = assay type: in vivo; settings: Δ^9-THC 1 mg/kg plus genistein 50 mg/kg or rimonabant 3 mg/kg
Experimental: FIG. 7A: Isometric tension recordings of isolated mice thoracic aortas were performed using a wire myograph. Vascular concentration-dependent relaxation was induced by acetylcholine (ACh) in pre-constricted mouse thoracic arteries. […] FIG. 7C: Luminex analysis of inflammatory cytokines in plasma of C57BL/6J mice treated with vehicle control, Δ^9-THC, or Δ^9-THC plus genistein. […] FIG. 7E: Effect of Δ^9-THC and genistein on NF-κB phosphorylation in mouse thoracic artery. Total cell lysates were prepared, and the expressions of phosphor-NF-κB were analyzed by ELISA (upper left). Superoxide dismutase (SOD) activity of serum from mouse (bottom left). The effect of Δ^9-THC and genistein on NF-κB phosphorylation in mouse thoracic artery tissues (n=5). Total cell lysates were prepared, and the expressions of NF-κB, phosphorylated NF-κB, and β-actin were analyzed by western blot analysis (right panel). FIG. 7F: The levels reduced glutathione (GSH), Oxidized glutathione (GSSG), Total glutathione (T-GSH) and GSH/GSSG in the serum samples of mice were detected. Plasma isolated from C57BL/6J mice (n=5) treated with vehicle control, Δ^9-THC, genistein, or their combination every day for 30 days was analyzed by the glutathione colorimetric assay kit (BioVision, K261).
Genistein also rescued the oxidative stress protective-related gene expression (FIG. 7D). In addition, NF-κB phosphorylation and SOD expression in mouse serum were also attenuated with genistein (FIG. 7E). Δ^9-THC administration decreased circulating levels of the antioxidant glutathione, which was ameliorated with genistein cotreatment (FIG. 7F).

CB1 receptor = CB1 receptor (Homo sapiens, UniProt P21554); experiment: GTPase-Glo assay (in vitro GTPase assay); assay type: biochemical; settings: GTPase-Glo assay
CB1 receptor, sequence (P21554 whole entry): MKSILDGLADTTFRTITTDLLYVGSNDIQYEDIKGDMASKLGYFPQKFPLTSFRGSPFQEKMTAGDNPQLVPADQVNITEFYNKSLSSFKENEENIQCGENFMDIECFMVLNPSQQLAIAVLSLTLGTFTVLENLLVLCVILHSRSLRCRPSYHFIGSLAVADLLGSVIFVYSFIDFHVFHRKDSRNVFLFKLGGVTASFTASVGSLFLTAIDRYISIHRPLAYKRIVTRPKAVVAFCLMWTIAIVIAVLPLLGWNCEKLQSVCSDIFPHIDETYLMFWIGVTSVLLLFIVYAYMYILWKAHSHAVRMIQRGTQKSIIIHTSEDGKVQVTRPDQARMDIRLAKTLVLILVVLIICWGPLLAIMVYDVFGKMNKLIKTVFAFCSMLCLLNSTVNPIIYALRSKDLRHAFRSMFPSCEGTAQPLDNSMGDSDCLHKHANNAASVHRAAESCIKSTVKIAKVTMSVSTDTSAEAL

## Cc1c(C(=O)NN2CCCCC2)nn(-c2ccc(Cl)cc2Cl)c1-c1ccc(Cl)cc1 [rimonabant]
C57BL/6J mice
  Δ^9-THC-induced mRNA expressions of inflammation-related genes in mouse thoracic artery tissues: ameliorated

## C[C@H](NC(=O)C(C)(C)Oc1ccc(C(F)(F)F)cn1)[C@@H](Cc1ccc(Cl)cc1)c1cccc(C#N)c1 [taranabant]
CB1 receptor
  GTP turnover compared with Apo: decrease GTP turnover
